Molecular target: Recombinant human HSP90a (Homo sapiens, UniProt P07900)
Assay: radioligand filter binding test ([3H]17AAG competition) for HSP90 inhibition
Settings: competition with [3H]17AAG 0.08 μM, HSP90 1.5 μg/assay, 22° C., 30 min
From the text: Test Method for the Measurement of HSP90 Inhibitors
The binding of geldanamycin or 17-allylamino-17-demethoxygeldanamycin (17AAG) to HSP90 and competitive inhibition thereof can be utilized in order to determine the inhibitory activity of the compounds according to the invention (Carreras et al. 2003, Chiosis et al. 2002).
In the specific case, a radioligand filter binding test is used. The radioligand used here is tritium-labelled 17-allylaminogeldanamycin, [3H]17AAG. This filter binding test allows a targeted search for inhibitors which interfere with the ATP binding site.
Recombinant human HSP90a (E. coli expressed, 95% purity);
[3H]17AAG (17-allylaminogeldanamycin, [allylamino-2,3-^3H. Specific activity: 1.11×10^12 Bq/mmol (Moravek, MT-1717);
HEPES filter buffer (50 mM HEPES, pH 7.0, 5 mM MgCl2, BSA 0.01%) Multiscreen FB (1 μm) filter plate (Millipore, MAFBNOB 50).
The 96-well microtitre filter plates are firstly irrigated and coated with 0.1% of polyethylenimine.
The test is carried out under the following conditions:
Reaction temperature 22° C.
Reaction time: 30 min., shaking at 800 rpm
50 mM HEPES HCl, pH 7.0, 5 mM MgCl2, 0.01% (w/v) of BSA
At the end of the reaction, the supernatant in the filter plate is removed by suction with the aid of a vacuum manifold (Multiscreen Separation System, Millipore), and the filter is washed twice.
The filter plates are then measured in a beta counter (Microbeta, Wallac) with scintillator (Microscint 20, Packard).
“% of control” is determined from the “counts per minutes” values, and the IC-50 value of a compound is calculated therefrom.

IC50 [nM]	Molecule
> 10000	CNC(=O)c1nc(N)nc2ccccc12 [Compound A1, 2-amino-4-methylcarbamoylquinazoline]
> 10000	CN(C)C(=O)c1nc(N)nc2ccccc12 [Compound A5, 2-Amino-4-dimethylcarbamoylquinazoline]
> 10000	C#CCCNC(=O)c1nc(N)nc2ccccc12 [Compound A19, 2-Amino-4-propargylmethylcarbamoylquinazoline]
10 to 1000	CCc1ccc2nc(N)nc(C(=O)N3Cc4ccc(Br)cc4C3)c2c1 [Compound A96, 2-Amino-6-ethyl-4-(5-bromo-1,3-dihydroisoindol-2-ylcarbonyl)quinazoline]
1000 to 10000	CC(C)c1ccc2nc(N)nc(C(=O)N3Cc4ccccc4C3)c2c1 [Compound A118, 2-Amino-6-isopropyl-4-(1,3-dihydroisoindol-2-ylcarbonyl)quinazoline]
1000 to 10000	Nc1nc(C(=O)N2Cc3ccccc3C2)c2cc(Br)ccc2n1 [Compound A125, 2-Amino-6-bromo-4-(1,3-dihydroisoindol-2-ylcarbonyl)quinazoline]
1000 to 10000	CCN(CC)C(=O)c1nc(N)nc2ccc(-c3ccccc3)cc12 [Compound A138, 2-Amino-6-phenyl-4-diethylcarbamoylquinazoline]
> 10000	CCNC(=O)c1ccc2nc(N)nc(C(=O)N(CC)CC)c2c1 [Compound A140, 2-Amino-6-ethylcarbamoyl-4-diethylcarbamoylquinazoline]
10 to 1000	Nc1nc(C(=O)N2Cc3ccccc3C2)c2cc(-c3ccccc3OC(F)(F)F)ccc2n1 [Compound A240]
10 to 1000	NC(=O)c1ccccc1-c1ccc2nc(N)nc(C(=O)N3Cc4ccccc4C3)c2c1 [Compound A310]
10 to 1000	CCc1ccccc1-c1ccc2nc(N)nc(C(=O)N3Cc4ccccc4C3)c2c1 [Compound A924, 2-Amino-6-(2-ethylphenyl)-4-(1,3-dihydroisoindol-2-ylcarbonyl)quinazoline]
10 to 1000	CCN(CC)C(=O)c1cccc(-c2ccc3nc(N)nc(C(=O)N4Cc5ccccc5C4)c3c2)c1 [Compound A931]
10 to 1000	CNCc1ccccc1-c1ccc2nc(N)nc(C(=O)N3Cc4ccccc4C3)c2c1 [Compound A933]
> 10000	CN(C)CCCNc1ccc2nc(N)nc(C(=O)N3Cc4ccccc4C3)c2c1 [Compound A940]
10 to 1000	Nc1nc(C(=O)N2Cc3ccccc3C2)c2cc(NC3CCCCC3)ccc2n1 [Compound A949]
1000 to 10000	Nc1nc(C(=O)N2Cc3ccccc3C2)c2cc(NCc3ccccc3)ccc2n1 [Compound A950]
1000 to 10000	Nc1nc(C(=O)N2Cc3ccccc3C2)c2cc(NC3CCC(O)CC3)ccc2n1 (stereo not shown) [Compound A951]
10 to 1000	Nc1nc(C(=O)N2Cc3ccccc3C2)c2cc(C#CCO)ccc2n1 [Compound A964, 2-amino-6-(3-hydroxyprop-1-ynyl)-4-(1,3-dihydroisoindol-2-ylcarbonyl)quinazoline]
10 to 1000	CN(C)CCNCc1ccccc1-c1ccc2nc(N)nc(C(=O)N3Cc4ccccc4C3)c2c1 [Compound A973]
10 to 1000	Nc1nc(C(=O)N2Cc3ccccc3C2)c2cc(-c3ccccc3CN3CCOCC3)ccc2n1 [Compound A974]
10 to 1000	CN(C)Cc1ccccc1-c1ccc2nc(N)nc(C(=O)N3Cc4ccccc4C3)c2c1 [Compound A975]
10 to 1000	COCCNCc1ccccc1-c1ccc2nc(N)nc(C(=O)N3Cc4ccccc4C3)c2c1 [Compound A976]
1000 to 10000	Nc1nc(C(=O)N2Cc3ccccc3C2)c2cc(-c3ccccc3CNC3CCC(O)CC3)ccc2n1 (stereo not shown) [Compound A977]

Further lines, the molecule ahead of its results:

Molecule	IC50 [nM]
2-Amino-4-propylethylcarbamoylquinazoline [Compound A11]	1000 to 10000
CCN(C)C(=O)c1nc(N)nc2ccccc12 [Compound A6, 2-Amino-4-ethylmethylcarbamoylquinazoline]	> 10000
CCN(CC)C(=O)c1nc(N)nc2ccccc12 [Compound A7, 2-Amino-4-diethylcarbamoylquinazoline]	> 10000
CC(C)N(C)C(=O)c1nc(N)nc2ccccc12 [Compound A8, 2-Amino-4-isopropylmethylcarbamoylquinazoline]	> 10000
CCCN(C)C(=O)c1nc(N)nc2ccccc12 [Compound A10, 2-Amino-4-propylmethylcarbamoylquinazoline]	> 10000
Nc1nc(C(=O)Nc2ccccc2-c2ccccc2)c2ccccc2n1 [Compound A46]	1000 to 10000
Nc1nc(C(=O)Nc2cccc3cccnc23)c2ccccc2n1 [Compound A48]	1000 to 10000
Nc1nc(C(=O)Nc2cccc3c2CCCC3)c2ccccc2n1 [Compound A50]	1000 to 10000
COc1ccc(Cl)cc1CN(C)C(=O)c1nc(N)nc2ccccc12 [Compound A72, 2-Amino-4-[(3-chloro-6-methoxybenzyl)methylcarbamoyl]quinazoline]	> 10000
CN(Cc1ccc(F)cc1)C(=O)c1nc(N)nc2ccccc12 [Compound A73, 2-Amino-4-[(4-fluorobenzyl)methylcarbamoyl]quinazoline]	> 10000
CCN(CC)C(=O)c1nc(N)nc2ccc(C)cc12 [Compound A77, 2-Amino-6-methyl-4-diethylcarbamoylquinazoline]	1000 to 10000
CCc1ccc2nc(N)nc(C(=O)N3Cc4ccc(O)cc4C3)c2c1 [Compound A95, 2-Amino-6-ethyl-4-(5-hydroxy-1,3-dihydroisoindol-2-ylcarbonyl)quinazoline]	1000 to 10000
CCc1ccc2nc(N)nc(C(=O)N3Cc4ccccc4C3)c2c1 [Compound A97, 2-Amino-6-ethyl-4-(1,3-dihydroisoindol-2-ylcarbonyl)quinazoline]	10 to 1000
CCc1ccc2nc(N)nc(C(=O)N(CC)CC)c2c1 [Compound A98, 2-Amino-6-ethyl-4-diethylcarbamoylquinazoline]	1000 to 10000
CC(C)c1ccc2nc(N)nc(C(=O)N3Cc4ccc(Br)cc4C3)c2c1 [Compound A117, 2-Amino-6-isopropyl-4-(5-bromo-1,3-dihydroisoindol-2-ylcarbonyl)quinazoline]	1000 to 10000
Nc1nc(C(=O)N2Cc3ccccc3C2)c2cc(-c3ccccc3C(F)(F)F)ccc2n1 [Compound A262]	10 to 1000

Molecule	IC50 [nM]
N#Cc1ccccc1-c1ccc2nc(N)nc(C(=O)N3Cc4ccccc4C3)c2c1 [Compound A328]	10 to 1000
Nc1nc(C(=O)N2Cc3ccccc3C2)c2cc(-c3ccccc3O)ccc2n1 [Compound A335, [2-amino-6-(2-hydroxyphenyl)quinazolin-4-yl]-(1,3-dihydroisoindol-2-yl)methanone]	10 to 1000
N#CCc1ccccc1-c1ccc2nc(N)nc(C(=O)N3Cc4ccccc4C3)c2c1 [Compound A344a]	10 to 1000
N#CCc1cccc(-c2ccc3nc(N)nc(C(=O)N4Cc5ccccc5C4)c3c2)c1 [Compound A919, 2-Amino-6-(3-cyanomethylphenyl)-4-(1,3-dihydroisoindol-2-ylcarbonyl)quinazoline]	10 to 1000
Nc1nc(C(=O)N2Cc3ccccc3C2)c2cc(-c3cc4ccccc4o3)ccc2n1 [Compound A921, 2-Amino-6-(benzofuran-2-yl)-4-(1,3-dihydroisoindol-2-ylcarbonyl)quinazoline]	1000 to 10000
Nc1nc(C(=O)N2Cc3ccccc3C2)c2cc(-c3ccncc3)ccc2n1 [Compound A922, 2-Amino-6-(pyridin-4-yl)-4-(1,3-dihydroisoindol-2-ylcarbonyl)quinazoline]	10 to 1000
Nc1nc(C(=O)N2Cc3ccccc3C2)c2cc(-c3ccncc3)ccc2n1 [Compound A923, 2-Amino-6-(pyridin-4-yl)-4-(1,3-dihydroisoindol-2-ylcarbonyl)quinazoline]	1000 to 10000
Nc1nc(C(=O)N2Cc3ccccc3C2)c2cc(-c3cccc(O)c3)ccc2n1 [Compound A925, 2-Amino-6-(3-hydroxyphenyl)-4-(1,3-dihydroisoindol-2-ylcarbonyl)quinazoline]	1000 to 10000
NCc1ccccc1-c1ccc2nc(N)nc(C(=O)N3Cc4ccccc4C3)c2c1 [Compound A936]	1000 to 10000
Nc1nc(C(=O)N2Cc3ccccc3C2)c2cc(N3CCN(C(=O)OCc4ccccc4)CC3)ccc2n1 [Compound A939]	10 to 1000
CN1CCN(c2ccc3nc(N)nc(C(=O)N4Cc5ccccc5C4)c3c2)CC1 [Compound A941]	1000 to 10000
Nc1nc(C(=O)N2Cc3ccccc3C2)c2cc(Oc3ccccc3)ccc2n1 [Compound A946]	10 to 1000
Nc1nc(C(=O)N2Cc3ccccc3C2)c2cc(-c3ccccc3C=O)ccc2n1 [Compound A969, 2-[2-amino-4-(1,3-dihydroisoindole-2-carbonyl)quinazolin-6-yl]benzaldehyde]	10 to 1000
CN1CCN(Cc2ccccc2-c2ccc3nc(N)nc(C(=O)N4Cc5ccccc5C4)c3c2)CC1 [Compound A970, {2-amino-6-[2-(4-methylpiperazin-1-ylmethyl)phenyl]quinazolin-4-yl}-(1,3-dihydroisoindol-2-yl)methanone]	10 to 1000
Nc1nc(C(=O)N2Cc3ccccc3C2)c2cc(-c3ccccc3CN3CCNCC3)ccc2n1 [Compound A971]	10 to 1000
Nc1nc(C(=O)N2Cc3ccccc3C2)c2cc(-c3ccccc3CNCCO)ccc2n1 [Compound A972]	10 to 1000

Reference: patent US8501754B2, “Quinazolinamide derivatives” (MERCK PATENT GmbH, priority 2007, dated 2013)
